Drawing on PubChem BioAssay (NCI), this text covers TGI for 19 molecules.

Common to all, as to assay: NCI-60 cell line screen, 48 h
The test system of test [1] is SK-OV-3 ovarian.
In test [2] the test system is A549 NSCLC.
The test system of test [3] is M14 melanoma.
Test [4] concerns SNB-75 CNS.
For test [5], the system named is HS 578T breast.
Test [6] relates to COLO 205 colon.
In test [7] the test system is U251 CNS.
The test system of test [8] is OVCAR-3 ovarian.
For test [9], the system named is MOLT-4 leukemia.
Test [10] relates to OVCAR-8 ovarian.
The subject of test [11] is HOP-62 NSCLC.
The test system of test [12] is MALME-3M melanoma.
Test [13] has as its system IGROV1 ovarian.
Test [14] deals with PC-3 prostate.
Test [15] deals with HOP-92 NSCLC.
The subject of test [16] is HCC-2998 colon.

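All cell lines were grown in 96-well plates and treated with compound for 48 hours. TGI: total growth inhibition.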 A value given as a limit tells only on which side of the number the result lay.

In the case of `COc1ccc(N2C(=O)C3ON(C(C(N)=O)c4ccccc4)C(c4ccc(-c5ccccc5)cc4)C3C2=O)cc1` (stereo not drawn), the TGI in [1], in [2], in test [3], in [4], in [5] and in test [6] was more than 50 µM each time. The TGI in test [7], in [8], in test [9], in test [10], in [11] and in test [12] was more than 50 µM each time. Also, the TGI in test [13] and in test [14] was more than 50 µM each time.

Take `CCCCCCOc1ccc(C(=O)NOCc2ccccc2)cc1`: the TGI in test [1], in [15], in test [2], in [3], in test [4] and in test [5] was more than 100 µM throughout. For the same molecule, the TGI in [6], in test [7], in [8], in [9], in test [10] and in test [16] was more than 100 µM in each case. The TGI in test [11], in [13] and in test [14] was more than 100 µM in each case.

`Nc1c(-c2nc3ccccc3s2)c2ccc([N+](=O)[O-])cc2c(=O)n1-c1cccc(C(=O)O)c1`: the TGI was 72.9 µM in test [15]; more than 100 µM in test [2]; 85.4 µM in test [4]; more than 100 µM in [5]; more than 100 µM in test [6]; 56 µM in [7]. For the same molecule, the TGI was 68.6 µM in [10], more than 100 µM in test [16] and more than 100 µM in [14].

As for `CCc1n[nH]c(=O)n1/N=C/c1ccccc1Cl`, the TGI in [1] was more than 100 µM; in test [15], more than 100 µM; in test [2], more than 100 µM; in test [3], more than 100 µM; in [5], 10.2 µM; in [6] it was more than 100 µM. Moreover, the TGI in test [7], in test [8], in test [9], in test [10], in test [16] and in test [11] was more than 100 µM each time. For the same molecule, the TGI in test [12] and in [13] was more than 100 µM throughout.

Regarding `CC1(C2(C)OC(=O)c3ccccc32)OC(=O)c2ccccc21` (stereo not drawn), the TGI in test [1], in test [15], in [2], in test [3], in [4] and in test [5] was more than 100 µM each time. Moreover, the TGI in test [6], in [7], in test [8], in test [9], in test [10] and in [16] was more than 100 µM in each case. Besides, the TGI in test [11], in [13] and in test [14] was more than 100 µM in each case.

Take `O=C1NC(Cc2c[nH]c3ccccc23)C(=O)N2C(C3CCCCC3)c3[nH]c4ccccc4c3C[C@@H]12` (stereo partly drawn): the TGI was 46.2 µM in test [15]; more than 100 µM in [2]; 28.9 µM in test [3]; 12.7 µM in [5]; 34.9 µM in [6]; 26 µM in [7]. Moreover, the TGI in test [8] came out at 6.58 µM; in test [9], 34.6 µM; in test [10], 56.7 µM; in [11] it was 44.9 µM; in test [12], 28.4 µM; in [13], 36.9 µM. In test [14], this molecule gave a TGI of 28.3 µM.

As to `N#CCCN(CCC#N)c1ccc(C(N=Nc2ccccc2)=Nc2ccccc2)cc1`, the TGI in test [1], in test [15], in test [2], in test [3], in test [4] and in [5] was more than 100 µM in each case. In addition, the TGI in test [6], in test [7], in test [8], in test [9], in test [10] and in test [16] was more than 100 µM throughout. Further, the TGI in test [11], in test [13] and in [14] was more than 100 µM in each case.

Regarding `CCCCC(=O)Nc1ccc2cc(C(=O)OC)c(ON3C(=O)c4ccccc4C3=O)nc2n1`, the TGI is more than 100 µM in [1]; 65.3 µM in test [15]; more than 100 µM in test [2]; 43.3 µM in test [3]; 88.2 µM in test [4]; more than 100 µM in [6]. Also, the TGI in test [7] was more than 100 µM; in [8] it was more than 100 µM; in [9], more than 100 µM; in test [10], 58.4 µM; in test [16], more than 100 µM; in [11], 37.6 µM. In addition, the TGI in test [12] is 38.5 µM; in test [13] it was 41 µM; in [14] it was more than 100 µM.

`O=C(O)C1CCCN1Cc1cc2ccccc2c2ccccc12` (stereo not drawn): the TGI in [1], in [15], in [2], in test [3], in [4] and in test [5] was more than 100 µM throughout. Moreover, the TGI in test [6], in [7], in test [8], in test [9], in test [10] and in [11] was more than 100 µM each time. Moreover, the TGI in [12], in test [13] and in test [14] was more than 100 µM throughout.

Consider `COC(=O)C(O)P(=O)(OC)OC` (stereo not drawn), for which the TGI in test [1], in test [15], in test [2], in test [3], in test [5] and in [6] was more than 100 µM in each case. Also, the TGI in test [7], in test [8], in [9], in test [10], in test [11] and in test [12] was more than 100 µM throughout. Besides, the TGI in test [13] and in test [14] was more than 100 µM in each case.

For the molecule `O=C/C(=C(/Br)I)c1ccccc1`, the TGI in test [1] was 23.2 µM; in test [15], 4.64 µM; in test [2], 56.2 µM; in test [3], 4.01 µM; in test [4] it was 18.7 µM; in test [5], more than 60 µM. Moreover, the TGI in test [6] was 14.3 µM; in test [7] it was 13.7 µM; in [8], 7.65 µM; in test [9], 4.28 µM; in [10] it was 10.6 µM; in [11] it was 29.8 µM. Besides, the TGI in test [12] amounted to 5.87 µM; in [13], 12.3 µM; in test [14], 18.2 µM.

`CC1(C)CC(=O)C2=C(C1)c1c(ccc3ccccc13)NC2c1cn(Cc2ccc(Cl)cc2)c2ccccc12` (stereo not drawn): the TGI in [1], in test [15], in test [2], in [3], in test [4] and in test [5] was more than 100 µM in each case. For the same molecule, the TGI in test [6], in test [7], in test [8], in test [9], in test [10] and in test [11] was more than 100 µM throughout. For the same molecule, the TGI in [13] and in test [14] was more than 100 µM each time.

On to `CN1CN(c2ccccc2)C2(CCN(CCCSc3ccccc3NC(=O)/C=C/c3ccccc3)CC2)C1=O`, for which the TGI in test [1] is more than 42.3 µM; in test [2] it was more than 87.3 µM; in [3], 3.89 µM; in [4], 22.8 µM; in [5], 15 µM; in test [6], 4.53 µM. Further, the TGI in test [7] was 22.5 µM; in test [8], 13.3 µM; in [9], 7 µM; in test [10] it was 32.6 µM; in test [16], 20.6 µM; in test [11] it was 5.8 µM. Also, the TGI in test [12] was found to be 4.77 µM; in test [13] it was 6.61 µM; in test [14], 23.5 µM.

`O=c1cc(N2CCOCC2)[nH]c(=O)n1-c1cccc(C(F)(F)F)c1`: the TGI in test [1], in test [15], in [2], in test [3], in test [4] and in [5] was more than 100 µM in each case. Also, the TGI in [6], in test [7], in test [8], in test [9], in [10] and in test [16] was more than 100 µM in each case. Besides, the TGI in test [11], in [12] and in test [13] was more than 100 µM throughout.

In the case of `CC(C)C1(C)N=C(C(F)(F)F)c2cc(C(=O)C(F)(F)F)c3ccccc3c2N1` (stereo not drawn), the TGI amounted to 30.2 µM in [1]; 23.5 µM in [2]; 18.2 µM in test [3]; 7.96 µM in test [4]; 11 µM in test [5]; 15.8 µM in test [6]. The TGI in test [7] was determined as 11.1 µM; in test [8], 10.6 µM; in [9] it was 18.1 µM; in test [10], 17.6 µM; in test [16] it was 11.9 µM; in test [11], 18.5 µM. Moreover, the TGI in test [12] was 12.7 µM; in [13], 3.28 µM; in test [14] it was 6.75 µM.

Regarding `COc1ccc(C2SCC(=O)N2c2ccc(-n3c(-c4ccccc4)nc4ccccc4c3=O)cc2)cc1OC` (stereo not drawn), the TGI in test [1] was more than 100 µM; in [2] it was more than 100 µM; in [3] it was more than 100 µM; in [4], 51.7 µM; in test [5], more than 100 µM; in test [6] it was more than 100 µM. Further, the TGI in test [7], in [8], in [9], in [10], in test [16] and in test [11] was more than 100 µM in each case. Moreover, the TGI in [12], in [13] and in [14] was more than 100 µM throughout.

As for `COc1cc(CCCOC(=O)/C=C/c2ccc(O)c(O)c2)cc(O)c1O`, the TGI in test [1], in test [2], in [3], in [4], in test [5] and in [6] was more than 100 µM each time. Besides, the TGI in test [7], in [8], in test [9], in test [10], in test [16] and in test [11] was more than 100 µM throughout. The TGI in test [12], in [13] and in test [14] was more than 100 µM throughout.

`COc1ccc2nc3ccc(OC)cc3c(S(=O)(=O)Cc3ccc([N+](=O)[O-])cc3)c2c1`: the TGI in test [1], in test [15], in [2], in test [3], in [4] and in test [6] was more than 100 µM throughout. The TGI in [7], in test [8], in test [9], in test [10], in test [16] and in test [11] was more than 100 µM in each case. In addition, the TGI in test [12], in test [13] and in test [14] was more than 100 µM in each case.

`COc1cc(-c2oc3c(OC)c(O)c(OC)c(O)c3c(=O)c2OC)cc(O)c1OC`: the TGI was 49.3 µM in test [1]; more than 100 µM in [15]; more than 100 µM in test [2]; more than 100 µM in [3]; 42 µM in test [4]; more than 100 µM in test [6]. In addition, the TGI is more than 100 µM in test [7]; 63.3 µM in test [8]; more than 100 µM in test [9]; more than 100 µM in [10]; more than 100 µM in test [16]; more than 100 µM in test [11]. The TGI in test [12] is 99.4 µM; in test [13] it was more than 100 µM; in test [14] it was more than 100 µM.
